Laboratory results as given in patent US20210386721A1, “SUBSTITUTED PHENYLPROPENYL PYRIDINE DERIVATIVES, THEIR PREPARATION AND PHARMACEUTICAL APPLICATIONS” (SHANGHAI HAIYAN PHARMACEUTICAL TECHNOLOGY CO., LTD., priority 2019, published 2021).

Experiments:
PD-1/PD-L1 = biological target: T1, PD-1/PD-L1 (Homo sapiens, UniProt Q9NZQ7); assay: PD-1/PD-L1 binding assay (HTRF, PPI-HTRF); settings: HTRF PD1/PD-L1 binding assay kit; 10 nM Tag1-PD-L1; 25° C.
T1 construct: purchased Cisbio 63ADK000CPDPEB
Procedure, shortened: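 HTRF binding assay: compound was mixed with tagged proteins at final concentrations of 10 nM Tag1-PD-L1 and 2 nM PD1 for 15 min at 25 °C. Anti-Tag1-Eu³⁺ and anti-Tag2-XL665 antibodies were then added for 16 h at 25 °C. IC50 was derived from the 665/620 nm emission ratio.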

[1] = test system: Jurkat T(PD1 Luc-)/CHOK1(PDL-1); assay: Jurkat T(PD1 Luc-)/CHOK1(PDL-1) cell experiment (luciferase reporter); format: cell-based; settings: CHO/PD-L1-OKT3 cells co-cultured with Jurkat/PD1-NFAT-Luc cells for 6 hours; Bio-Glo luciferase signal
Description: Assay 2 Jurkat T(PD1 Luc-)/CHOK1(PDL-1) Cell Experiment
G418, Sangon Biotech #A100859-0001, Cat Number G108BA0003, 5 ml of deionized water being added into each bottle, store at 4° C.
CHO/PD-L1-OKT3 cells (constructed by referring to Promega's PD-1/PD-L1 Blockade Bioassays system) cultured in F-12K medium (containing 10% FBS, 800 ug/ml G418, 400 ug/ml D Hygromycin B) were planted into a 96-well plate at 2×10^4 per well, and incubated for 24 hours at 37° C. and 5% CO2. part of the medium was removed, and the test compound dissolved in DMSO with a final concentration of 1 uM was added, and DMSO at the same concentration was added into the control cells. Jurkat/PD1-NFAT-Luc cells (constructed by referring to Promega's PD-1/PD-L1 Blockade Bioassays system) were added at 5×10^5 per well at the same time, and cultured for 6 hours. The corresponding luciferase signal was detected by Bio-Glo™ (Promega, G7940) reagent. The EC50 of each compound to be tested was calculated through the non-linear regression of XLfit software.

T1 sequence (Q9NZQ7 19-238 limits assumed): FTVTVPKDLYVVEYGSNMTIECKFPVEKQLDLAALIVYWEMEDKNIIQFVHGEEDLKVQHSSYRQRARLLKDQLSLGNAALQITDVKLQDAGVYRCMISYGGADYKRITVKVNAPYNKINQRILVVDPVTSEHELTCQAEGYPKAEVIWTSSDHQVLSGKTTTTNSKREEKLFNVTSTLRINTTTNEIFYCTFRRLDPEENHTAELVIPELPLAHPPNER

| SMILES | IC50 (PD-1/PD-L1) [nM] | EC50 [1] [nM] |
| --- | --- | --- |
| Cc1cc(/C=C/c2nccc(-c3cccc(NC(=O)c4ccc(CN5CC[C@@H](O)C5)cn4)c3Cl)c2C)c(Cl)cc1CN1CC[C@@H](C(=O)O)C1 [Z-76] | 1 | 361 |
| COc1cc(/C=C/c2cccc(-c3cccc(NC(=O)c4ccc(CN5CC[C@@H](O)C5)cn4)c3Cl)c2C)c(C(F)(F)F)cc1CN1CC[C@@H](C(=O)O)C1 [Z-80] | 1 | 36 |
| COc1cc(/C=C/c2cccc(-c3cccc(NC(=O)c4ccc(CN5CC[C@@H](O)C5)cn4)c3Cl)c2C)c(C(F)(F)F)cc1CN1CCCC[C@H]1C(=O)O [Z-82] | 1 | 29 |
| Cc1cc(/C=C/c2nccc(-c3cccc(NC(=O)c4ccc(CN5CC[C@@H](O)C5)cn4)c3C)c2Cl)c(Cl)cc1CN1CCCC[C@H]1C(=O)O [Z-83] | 1 | 113 |
| COc1cc(/C=C/c2cccc(-c3cccc(NC(=O)c4ccc(CN5CC[C@@H](O)C5)cn4)c3C)c2Cl)c(C(F)(F)F)cc1CN1CC[C@@H](C(=O)O)C1 [Z-85] | 1 | 34 |
| COc1cc(/C=C/c2cccc(-c3cccc(NC(=O)c4ccc(CN5CC[C@@H](O)C5)cn4)c3Cl)c2C)c(C(F)(F)F)cc1CN1CCC(C)(C(=O)O)C1 (stereo partly drawn) [Z-87, 1-(4-((E)-2-(2′-chloro-3′-(5-(((R)-3-hydroxypyrrolidin-1-yl)methyl)picolinamido)-2-methyl-[1,1′-biphenyl]-3-yl)vinyl)-2-methoxy-5-(trifluoromethyl)benzyl)-3-methylpyrrolidine-3-carboxylic Acid] | 1 | 26 |
| COc1cc(/C=C/c2cccc(-c3cccc(NC(=O)c4ccc(CN5CC[C@@H](O)C5)cn4)c3Cl)c2C)c(C(F)(F)F)cc1CN1CCC[C@H]1C(=O)O [Z-92] | 1 | 6 |
| COc1cc(/C=C/c2cccc(-c3cccc(NC(=O)c4ccc(CN5CC[C@@H](O)C5)cn4)c3Cl)c2Cl)c(C(F)(F)F)cc1CN1CC[C@@H](C(=O)O)C1 [Z-93] | 2 | 8 |
| COc1cc(/C=C/c2cccc(-c3cccc(NC(=O)c4ccc(CN5CC[C@@H](O)C5)cn4)c3C)c2C#N)c(C(F)(F)F)cc1CN1CC[C@@H](C(=O)O)C1 [Z-94] | 1 | 10 |
| Cc1cc(/C=C/c2nccc(-c3cccc(NC(=O)c4ccc(CN5CC[C@@H](O)C5)cn4)c3C)c2C#N)c(C(F)(F)F)cc1CN1CC[C@@H](C(=O)O)C1 [Z-101] | 1 | 122 |
| COc1cc(/C=C/c2cccc(-c3cccc(NC(=O)c4ccc(CN5CC[C@@H](O)C5)cn4)c3C)c2C)c(C(F)(F)F)cc1CN1CCCC[C@H]1C(=O)O [Z-102] | 1 | 9 |
| COc1cc(/C=C/c2cccc(-c3cccc(NC(=O)c4ccc(CN5CC[C@@H](O)C5)cn4)c3C#N)c2C)c(C(F)(F)F)cc1CN1CC[C@@H](C(=O)O)C1 [Z-105] | 1 | 14 |
| COc1cc(/C=C/c2cccc(-c3cccc(NC(=O)c4nc5c(n4C)CCN(C)C5)c3Cl)c2C)c(C(F)(F)F)cc1CN1CCCC[C@H]1C(=O)O [Z-108, (S,E)-1-(4-(2-(2′-chloro-3′-(1,5-dimethyl-4,5,6,7-tetrahydro-1H-imidazo[4,5-c]pyridine-2-carboxamido)-2-methyl-[1,1′-biphenyl]-3-yl)vinyl)-2-methoxy-5-(trifluoromethyl)benzyl)piperidine-2-carboxylic Acid] | 2 | 57 |
| COc1cc(/C=C/c2cccc(-c3cccc(NC(=O)c4ccc(CNC[C@@H]5CCC(=O)N5)cn4)c3C)c2C)c(C(F)(F)F)cc1CN1CC[C@@H](C(=O)O)C1 [Z-110, (R)-1-(4-((E)-2-(2,2′-dimethyl-3′-(5-(((((S)-5-oxopyrrolidin-2-yl)methyl)amino)methyl)picolinamido)-[1,1′-biphenyl]-3-yl)vinyl)-2-methoxy-5-(trifluoromethyl)benzyl)pyrrolidine-3-carboxylic Acid] | 1 | 153 |

Now from value to compound, other results behind:

| IC50 (PD-1/PD-L1) [nM] | SMILES | EC50 [1] [nM] |
| --- | --- | --- |
| 1 | COc1cc(/C=C/c2nccc(-c3cccc(NC(=O)c4ccc(CN5CC[C@@H](O)C5)cn4)c3C)c2C#N)c(C(F)(F)F)cc1CN1CC[C@@H](C(=O)O)C1 [Z-74] | 51 |
| 1 | Cc1cc(/C=C/c2nccc(-c3cccc(NC(=O)c4ccc(CN5CC[C@@H](O)C5)cn4)c3Cl)c2C#N)c(Cl)cc1CN1CCCC[C@H]1C(=O)O [Z-81] | 44 |
| 1 | COc1cc(/C=C/c2cccc(-c3cccc(NC(=O)c4ccc(CN5CC[C@@H](O)C5)cn4)c3C)c2C)c(C(F)(F)F)cc1CN1CC[C@@H](C(=O)O)C1 [Z-84] | 25 |
| 1 | Cc1cc(/C=C/c2cccc(-c3cccc(NC(=O)c4ccc(CN5CC[C@@H](O)C5)cn4)c3C)c2C)c(Cl)cc1CN1CC[C@@H](C(=O)O)C1 [Z-86] | 38 |
| 1 | COc1cc(/C=C/c2cccc(-c3cccc(NC(=O)c4ccc(CN5CC[C@@H](O)C5)cn4)c3Cl)c2C)c(C(F)(F)F)cc1CN1CCC(C(=O)O)CC1 [Z-89] | 16 |
| 1 | Cc1cc(/C=C/c2cccc(-c3cccc(NC(=O)c4ccc(CN5CC[C@@H](O)C5)cn4)c3C)c2C)c(C(F)(F)F)cc1CN1CC[C@@H](C(=O)O)C1 [Z-90] | 24 |
| 1 | Cc1cc(/C=C/c2cccc(-c3cccc(NC(=O)c4ccc(CN5CC[C@@H](O)C5)cn4)c3C)c2C)c(C2CC2)cc1CN1CC[C@@H](C(=O)O)C1 [Z-91] | 147 |
| < 1 | COc1cc(/C=C/c2cccc(-c3cccc(NC(=O)c4ccc(CN5CC[C@@H](O)C5)cn4)c3Cl)c2C#N)c(C(F)(F)F)cc1CN1CC[C@@H](C(=O)O)C1 [Z-95] | 4 |
| < 1 | COc1cc(/C=C/c2cccc(-c3cccc(NC(=O)c4ccc(CN5CC[C@@H](O)C5)cn4)c3F)c2Cl)c(C(F)(F)F)cc1CN1CC[C@@H](C(=O)O)C1 [Z-96] | 10 |
| < 1 | COc1cc(/C=C/c2cccc(-c3cccc(NC(=O)c4ccc(CN5CC[C@@H](O)C5)cn4)c3C)c2C)c(C(F)(F)F)cc1CN1CC[C@H](C(=O)O)C1 [Z-97] | 2 |
| 2 | COc1cc(/C=C/c2cccc(-c3cccc(NC(=O)c4ccc(CN5CC[C@@H](O)C5)cn4)c3C(F)(F)F)c2C#N)c(C(F)(F)F)cc1CN1CC[C@@H](C(=O)O)C1 [Z-98] | 174 |
| < 1 | COc1cc(/C=C/c2cccc(-c3cccc(NC(=O)c4ccc(CN5CC[C@@H](O)C5)cn4)c3Cl)c2F)c(C(F)(F)F)cc1CN1CC[C@@H](C(=O)O)C1 [Z-99] | 35 |
| 1 | COc1cc(/C=C/c2cccc(-c3cccc(NC(=O)c4ccc(CN5CC[C@@H](O)C5)cn4)c3C)c2C)c(C(F)(F)F)cc1CN1CCC(C)(C(=O)O)C1 (stereo partly drawn) [Z-103] | 19 |
| 1 | COc1cc(/C=C/c2cccc(-c3cccc(NC(=O)c4ccc(CN5CC[C@@H](O)C5)cn4)c3C)c2C)c(C(F)(F)F)cc1CN1CCCC(C(=O)O)C1 (stereo partly drawn) [Z-106] | 20 |
| 1 | COc1cc(/C=C/c2cccc(-c3cccc(NC(=O)c4ccc(CN5CC[C@@H](O)C5)cn4)c3Cl)c2C)c(C(F)(F)F)cc1CNC[C@@H](O)CC(=O)O [Z-107] | 16 |
| 1 | COc1cc(/C=C/c2cccc(-c3cccc(NC(=O)c4ccc(CNCCS(C)(=N)=O)cn4)c3C)c2C)c(C(F)(F)F)cc1CN1CC[C@@H](C(=O)O)C1 (stereo partly drawn) [Z-109, (3R)-1-(4-((E)-2-(2,2′-dimethyl-3′-(5-(((2-(S-methylsulfonimidoyl)ethyl)amino)methyl)picolinamido)-[1,1′-biphenyl]-3-yl)vinyl)-2-methoxy-5-(trifluoromethyl)benzyl)pyrrolidine-3-carboxylic Acid] | 121 |
| 1 | COc1cc(C(=O)Nc2cccc(-c3cccc(/C=C/c4cc(OC)c(CN5CCC[C@H]5C(=O)O)cc4C(F)(F)F)c3C)c2C)ncc1CNCCO [Z-112] | 25 |
| 1 | COc1cc(/C=C/c2cccc(-c3cccc(NC(=O)c4nc5c(n4C)CCN(CCO)C5)c3Cl)c2C)c(C(F)(F)F)cc1CN1CCCC[C@H]1C(=O)O [Z-113, (S, E)-1-(4-(2-(2′-chloro-3′-(5-(2-hydroxyethyl)-1-methyl-4,5,6,7-tetrahydro-1H-imidazo [4,5-c]pyridine-2-carboxamido)-2-methyl-[1,1′-biphenyl]-3-yl)vinyl)-2-methoxy-5-(trifluoromethyl)benzyl) piperidine-2-carboxylic Acid] | 66 |
| 1 | COc1cc(C(=O)Nc2cccc(-c3cccc(/C=C/c4cc(OC)c(CN5CC[C@@H](C(=O)O)C5)cc4C(F)(F)F)c3C)c2C)ncc1CN1CC(CO)C1 [Z-114, (R,E)-1-(4-(2-(3′-(5-((3-(hydroxymethyl)azetidin-1-yl)methyl)-4-methoxypicolinamido)-2,2′-dimethyl-[1,1′-biphenyl]-3-yl)vinyl)-2-methoxy-5-(trifluoromethyl)benzyl)pyrrolidine-3-carboxylic Acid] | 54 |
